According to ChEMBL document CHEMBL3885881, “DrugMatrix”:

Species on record: Rattus norvegicus
Assay: DrugMatrix - Regimen: Daily Repeat
Type: toxicity, organism-based, Sprague-Dawley
Set-up: regimen Daily Repeat, gender Male, age 6-8 weeks
Details: in vivo, iv, vehicle 100 % SALINE; for ABSOLUTE BASOPHIL / ABSOLUTE EOSINOPHIL / ABSOLUTE LYMPHOCYTE / ABSOLUTE MONOCYTE / ABSOLUTE SEGMENTED NEUTROPHIL / BASOPHIL / EOSINOPHIL / ERYTHROCYTE COUNT / HEMATOCRIT / HEMOGLOBIN / LEUKOCYTE COUNT / LYMPHOCYTE / MEAN CORPUSCULAR HEMOGLOBIN / MEAN CORPUSCULAR HEMOGLOBIN CONCENTRATION / MEAN CORPUSCULAR VOLUME / MONOCYTE / NEUTROPHIL / NUCLEATED RED BLOOD CELLS / PLATELET COUNT: tissue Blood; for ALANINE AMINOTRANSFERASE / ALBUMIN / ALKALINE PHOSPHATASE / ASPARTATE AMINOTRANSFERASE / BLOOD UREA NITROGEN / CARBON DIOXIDE / CHLORIDE / CHOLESTEROL / CREATINE PHOSPHOKINASE / CREATININE / GLUCOSE / LACTATE DEHYDROGENASE / LIPASE / PHOSPHORUS / POTASSIUM / SODIUM / TOTAL BILIRUBIN / TOTAL PROTEIN / URIC ACID: tissue Plasma
[1] = 0 mg/kg, 72 h, dose level Control, time 3 day
[2] = 0 mg/kg, 120 h, dose level Control, time 5 day
[3] = 0.005 mg/kg, 72 h, dose level Low, time 3 day

CC(=O)O[C@H]1C[C@@H]2CC[C@@H]3[C@H](CC[C@@]4(C)[C@H]3C[C@H]([N+]3(C)CCCCC3)[C@@H]4OC(C)=O)[C@@]2(C)C[C@@H]1N1CCCCC1.[Br-] [VECURONIUM BROMIDE]
ABSOLUTE BASOPHIL [1]: 0 CELLS/uL | ABSOLUTE EOSINOPHIL [1]: 0 CELLS/uL | ABSOLUTE LYMPHOCYTE [1]: 11636.83 CELLS/uL | ABSOLUTE MONOCYTE [1]: 159 CELLS/uL | ABSOLUTE SEGMENTED NEUTROPHIL [1]: 1170.83 CELLS/uL | BASOPHIL [1]: 0% | EOSINOPHIL [1]: 0% | ERYTHROCYTE COUNT [1]: 5.46 x10E6/uL | HEMATOCRIT [1]: 34.05% | HEMOGLOBIN [1]: 13.58 G/DL | LEUKOCYTE COUNT [1]: 12.97 x10E3/uL | LYMPHOCYTE [1]: 89.67% | MEAN CORPUSCULAR HEMOGLOBIN [1]: 24.87 pg | MEAN CORPUSCULAR HEMOGLOBIN CONCENTRATION [1]: 39.9 G/DL | MEAN CORPUSCULAR VOLUME [1]: 62.3 fL | MONOCYTE [1]: 1.33% | NEUTROPHIL [1]: 9% | NUCLEATED RED BLOOD CELLS [1]: 0.17 /100WBC | PLATELET COUNT [1]: 824 x10E3/uL | ALANINE AMINOTRANSFERASE [1]: 64.83 u/L | ALBUMIN [1]: 4.08 G/DL | ALKALINE PHOSPHATASE [1]: 421 u/L | ASPARTATE AMINOTRANSFERASE [1]: 116.83 u/L | BLOOD UREA NITROGEN [1]: 16.83 mg/dL | CARBON DIOXIDE [1]: 28 mmol/L | CHLORIDE [1]: 101.33 MEQ/L | CHOLESTEROL [1]: 74.17 mg/dL | CREATINE PHOSPHOKINASE [1]: 748.5 u/L | CREATININE [1]: 0.22 mg/dL | GLUCOSE [1]: 152.83 mg/dL | LACTATE DEHYDROGENASE [1]: 578.5 u/L | LIPASE [1]: 9.83 u/L | PHOSPHORUS [1]: 11.63 mg/dL | POTASSIUM [1]: 5.93 MEQ/L | SODIUM [1]: 142.1 MEQ/L | TOTAL BILIRUBIN [1]: 0.17 mg/dL | TOTAL PROTEIN [1]: 5.77 G/DL | URIC ACID [1]: 1.43 mg/dL | ABSOLUTE BASOPHIL [2]: 0 CELLS/uL | ABSOLUTE EOSINOPHIL [2]: 159.17 CELLS/uL | ABSOLUTE LYMPHOCYTE [2]: 12267.5 CELLS/uL | ABSOLUTE MONOCYTE [2]: 30 CELLS/uL | ABSOLUTE SEGMENTED NEUTROPHIL [2]: 1160 CELLS/uL | BASOPHIL [2]: 0% | EOSINOPHIL [2]: 1.17% | ERYTHROCYTE COUNT [2]: 5.52 x10E6/uL | HEMATOCRIT [2]: 34.3% | HEMOGLOBIN [2]: 13.73 G/DL | LEUKOCYTE COUNT [2]: 13.62 x10E3/uL | LYMPHOCYTE [2]: 90.5% | MEAN CORPUSCULAR HEMOGLOBIN [2]: 24.92 pg | MEAN CORPUSCULAR HEMOGLOBIN CONCENTRATION [2]: 40.07 G/DL | MEAN CORPUSCULAR VOLUME [2]: 62.17 fL | MONOCYTE [2]: 0.17% | NEUTROPHIL [2]: 8.17% | NUCLEATED RED BLOOD CELLS [2]: 0.17 /100WBC | PLATELET COUNT [2]: 1261.83 x10E3/uL | ALANINE AMINOTRANSFERASE [2]: 58.67 u/L | ALBUMIN [2]: 4.15 G/DL | ALKALINE PHOSPHATASE [2]: 364.67 u/L | ASPARTATE AMINOTRANSFERASE [2]: 105.33 u/L | BLOOD UREA NITROGEN [2]: 17.67 mg/dL | CARBON DIOXIDE [2]: 26.5 mmol/L | CHLORIDE [2]: 101.67 MEQ/L | CHOLESTEROL [2]: 63 mg/dL | CREATINE PHOSPHOKINASE [2]: 480.67 u/L | CREATININE [2]: 0.17 mg/dL | GLUCOSE [2]: 144.67 mg/dL | LACTATE DEHYDROGENASE [2]: 540.33 u/L | LIPASE [2]: 10.33 u/L | PHOSPHORUS [2]: 11.52 mg/dL | POTASSIUM [2]: 6.12 MEQ/L | SODIUM [2]: 142.45 MEQ/L | TOTAL BILIRUBIN [2]: 0.18 mg/dL | TOTAL PROTEIN [2]: 5.73 G/DL | URIC ACID [2]: 1.48 mg/dL | ABSOLUTE BASOPHIL [3]: 0 CELLS/uL | ABSOLUTE EOSINOPHIL [3]: 199.67 CELLS/uL | ABSOLUTE LYMPHOCYTE [3]: 11233.67 CELLS/uL | ABSOLUTE MONOCYTE [3]: 56 CELLS/uL | ABSOLUTE SEGMENTED NEUTROPHIL [3]: 844 CELLS/uL | BASOPHIL [3]: 0% | EOSINOPHIL [3]: 1.33% | ERYTHROCYTE COUNT [3]: 5.06 x10E6/uL | HEMATOCRIT [3]: 32.6% | HEMOGLOBIN [3]: 13.3 G/DL | LEUKOCYTE COUNT [3]: 12.33 x10E3/uL | LYMPHOCYTE [3]: 91.67% | MEAN CORPUSCULAR HEMOGLOBIN [3]: 26.33 pg | MEAN CORPUSCULAR HEMOGLOBIN CONCENTRATION [3]: 40.8 G/DL | MEAN CORPUSCULAR VOLUME [3]: 64.5 fL | MONOCYTE [3]: 0.33% | NEUTROPHIL [3]: 6.67% | NUCLEATED RED BLOOD CELLS [3]: 0.33 /100WBC | PLATELET COUNT [3]: 730.67 x10E3/uL | ALANINE AMINOTRANSFERASE [3]: 57 u/L | ALBUMIN [3]: 4.2 G/DL | ALKALINE PHOSPHATASE [3]: 421.67 u/L | ASPARTATE AMINOTRANSFERASE [3]: 117.33 u/L | BLOOD UREA NITROGEN [3]: 19 mg/dL | CARBON DIOXIDE [3]: 31 mmol/L | CHLORIDE [3]: 100.67 MEQ/L | CHOLESTEROL [3]: 72 mg/dL | CREATINE PHOSPHOKINASE [3]: 975.33 u/L | CREATININE [3]: 0.22 mg/dL | GLUCOSE [3]: 155.33 mg/dL | LACTATE DEHYDROGENASE [3]: 630.33 u/L | LIPASE [3]: 11.67 u/L | PHOSPHORUS [3]: 10.7 mg/dL | POTASSIUM [3]: 6.14 MEQ/L | SODIUM [3]: 141.83 MEQ/L | TOTAL BILIRUBIN [3]: 0.2 mg/dL | TOTAL PROTEIN [3]: 5.87 G/DL | URIC ACID [3]: 1.03 mg/dL
